Experimental data as given in patent US20240082218A1, “PHARMACEUTICAL COMBINATIONS COMPRISING A KRAS G12C INHIBITOR AND USES OF A KRAS G12C INHIBITOR FOR THE TREATMENT OF CANCERS” (priority 2020, published 2024).
“Also recorded” adds a separate entry of the source. Read-outs that look alike come from different tables or passages of the source.

Assays:
KRASG12C [1] = target: T1, KRASG12C (Homo sapiens, UniProt P01116, G12C); assay: Cellular target occupancy 6 h; format: cell-based
KRAS WT = KRAS WT (Homo sapiens, UniProt P01116); assay: cRAF recruitment 6 h cellular assay; format: cell-based
NRAS WT = NRAS WT (Homo sapiens, UniProt P01111); assay: cRAF recruitment 6 h cellular assay; format: cell-based
NRAS WT, sequence (P01111 whole entry): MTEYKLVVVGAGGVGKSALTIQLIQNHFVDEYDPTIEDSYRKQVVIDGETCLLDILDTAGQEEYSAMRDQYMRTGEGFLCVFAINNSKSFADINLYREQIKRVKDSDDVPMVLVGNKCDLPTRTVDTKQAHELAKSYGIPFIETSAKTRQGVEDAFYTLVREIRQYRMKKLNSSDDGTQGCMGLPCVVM

[2] = system: KRAS G12C-mutated cell lines; assay: pERK 6 h cellular assay; format: cell-based; settings: Hec50, 6 h, read-out: pERK 6 h EC50 KRAS^G12C
[3] = system: MEK Q56P mutated cell lines; assay: pERK 6 h cellular assay; format: cell-based; settings: Hec50, 6 h, read-out: pERK 6 h EC50 MEK^Q56P
[4] = system: KRAS G12C-mutated cell lines; assay: Proliferation cellular assay; format: cell-based
[5] = system: MEK Q56P mutated cell lines; assay: Proliferation cellular assay; format: cell-based
pERK = assay: In vitro pERK inhibition in H358 cancer cells; format: cell-based; settings: Homo sapiens, NCI-H358
Experimental: (§1) KRASG12C inhibition can be assessed by measuring free KRASG12C levels (target occupancy) and other biomarkers in the MAPK signaling pathway, such as decreased levels of phosphorylated ERK1/2 (pERK) and downregulation of DUSP6 mRNA transcript. […] In the less sensitive NCI-H2122 xenografts, orally administered JDQ443 (100 mg/kg QD) achieved approximately 80% KRASG12C inhibition and 90% decrease in DUSP6 mRNA transcript, causing stasis which is the maximum response in this model upon MAPK pathway inhibition.

H358 cancer cells = assay: Antiproliferation in H358 cancer cells; format: cell-based; settings: Homo sapiens, NCI-H358
[6] = system: MIA PaCa-2 (KRASG12C pancreas) xenograft; assay: Anti-tumor activity in MIA PaCa-2 xenografts; format: in vivo, mice
[7] = system: NCI-H2122 (KRASG12C lung) xenograft; format: in vivo, mice
[8] = system: Lu99 KRAS G12C lung carcinoma xenograft; assay: Anti-tumor efficacy in Lu99 KRAS G12C lung carcinoma xenografts; format: in vivo, mice
Experimental: It carries the allele NM_033360.4(KRAS):c.34G>T and consequently a heterozygous KRAS Gly12Cys mutation. Lu99 cells were grown in sterile conditions in a 37° C. incubator with 5% CO2 for two weeks. The cells were kept in RPMI media supplemented with 10% FCS, 2 mM L-Glutamin, 1 mM sodium pyruvate and 10 mM HEPES, and split 1:6 every 3 days. […] On the day of injection, cells were harvested after 8 passages in total, including passages from the vendor. Cells were resuspended in 50% HBSS and 50% Matrigel at a final concentration of 10·10^6 cells/ml.
Experiments were performed with female nude mice (Charles River Laboratories, Crl:NU(NCr)-Foxn1nu Homozygous). […] Animals were allowed to accommodate at least for 7 days.
Mice were injected subcutaneously with Lu99 human NSCLC cells to induce xenograft tumors and randomized into treatment groups when the mean tumor volume reached ˜250 mm^3.
The control group received a solution of 0.1% Tween 80 (Fisher Scientific AG #BP338-500) and 0.5% Methylcellulose in water.
The treatment period was between 9 to 28 days, depending on the groups.
Tumor growth was monitored regularly post cell inoculation and animals were randomized into treatment groups (n=6) when TV reached appropriate volume. During the treatment period, xenograft tumor sizes were measured about 2-3 times per week manually with calipers, and the TV was estimated in mm^3 using the formula: Length×Width^2/2.
Mice were injected subcutaneously with Lu99 human NSCLC cells to induce xenograft tumors and randomized into treatment groups when the mean tumor volume reached ˜200 mm^3. […] The treatment period was between 14 to 35 days, depending on the groups. Animals treated with vehicle were terminated at day 14. […] Tumor volumes were recorded and are represented as mean±SEM (standard error of the mean) for each group. Anti-tumor response of treatment groups vs. vehicle group was calculated at day 14 as % T/C or % regression.

HCC44 xenograft = assay: Anti-tumor activity in HCC44 xenografts; format: in vivo, mice; settings: 10, 30 and 100 mg/kg oral daily
NCI-H2030 xenograft = assay: Anti-tumor activity in NCI-H2030 xenografts; format: in vivo, mice; settings: 10, 30 and 100 mg/kg oral daily
KYSE410 xenograft = assay: Anti-tumor activity in KYSE410 (esophageal) xenografts; format: in vivo, mice; settings: 10, 30 and 100 mg/kg oral daily
[9] = system: KRAS G12C-mutated colorectal cancer PDX models; assay: KRAS G12C-mutated patient-derived xenograft (PDX) models of human colorectal cancer; format: in vivo, mice; settings: oral; Compound A 100 mg/kg daily alone or with TNO155 10 mg/kg twice daily; one animal per PDX model
Experimental: Female nude mice were implanted subcutaneously with tumor fragments from each PDX model. Individual mice were assigned to treatment groups for dosing once their tumor volume reached 200-250 mm^3. One animal per PDX model was assigned to each treatment arm. […] The end of study per model was defined as minimum of 28 days treatment, or duration for untreated tumor to reach 1500 mm^3, or duration for two doublings of untreated tumor, whichever was slower. Tumor volumes were recorded and are represented as % tumor volume change f SEM for each group.

DUSP6 mRNA transcript [10] = assay: In vivo DUSP6 mRNA in MIA PaCa-2 xenografts; settings: 30 mg/kg QD oral
DUSP6 mRNA transcript [11] = assay: In vivo DUSP6 mRNA in NCI-H2122 xenografts; settings: 100 mg/kg QD oral
Experimental: as §1

Blood pharmacokinetics = settings: in vivo
4-week toxicity study [12] = format: in vivo; settings: rat
4-week toxicity study [13] = format: in vivo; settings: dog
KRASG12C [14] = target: T1, KRASG12C; assay: In vivo KRASG12C target occupancy in NCI-H2122 xenografts; design: endogenous in cells; settings: 100 mg/kg QD oral
Experimental: as §1

[15] = Oral exposure and tolerability in rat
[16] = Oral exposure and tolerability in dog
[17] = Oral exposure and tolerability in mouse
KRASG12C [18] = target: T1, KRASG12C; assay: In vitro KRAS G12C target occupancy in H358 cancer cells; format: cell-based; design: endogenous in cells; host or cells: H358 (NCI-H358) cancer cells; settings: read-out: in vitro IC50 for inhibition of KRAS G12C (target occupancy)
Experimental: as §1

KRASG12C [19] = target: T1, KRASG12C; assay: KRASG12C target occupancy in LU99 xenografts after 5 days treatment; format: in vivo; design: KRASG12C target occupancy was assessed after 5 days treatment of LU99 xenografts; endogenous in cells; host or cells: LU99 tumour xenografts in nude mice; settings: single-agent 30 mg/kg vs 100 mg/kg
[20] = 10, 30 and 100 mg/kg oral daily

C=CC(=O)N1CC2(CC(n3nc(-c4ccc5c(cnn5C)c4)c(-c4c(Cl)c(C)cc5[nH]ncc45)c3C)C2)C1 (single isomer, unassigned) [Compound A, 1-{6-[(4M)-4-(5-Chloro-6-methyl-1H-indazol-4-yl)-5-methyl-3-(1-methyl-1H-indazol-5-yl)-1H-pyrazol-1-yl]-2-azaspiro[3.3]heptan-2-yl}prop-2-en-1-one]
EC50 (KRASG12C [1]): 30 nM | EC50 (KRAS WT): > 10 µM | EC50 (NRAS WT): > 6 µM | EC50 [2]: 20 nM | EC50 [3]: > 10 µM | GI50 [4]: 30 nM | GI50 [5]: 4 µM | IC50 (pERK): 20 nM | GI50 (H358 cancer cells): 30 nM | anti-tumor activity ([6]; 3 mg/kg daily oral): tumor stasis | anti-tumor activity ([6]; 5 mg/kg twice daily, compared with 10 mg/kg daily): comparable regression | anti-tumor activity ([6]; 10 mg/kg daily oral): tumor regression | anti-tumor activity ([6]; 15 mg/kg twice daily, compared with 30 mg/kg qd): same tumor regression | tumor growth inhibition by schedule ([6]; 30 mg/kg daily compared to 30 mg/kg q3d or 90 mg/kg q3d): better tumor growth inhibition | anti-tumor activity ([6]; 30 mg/kg daily oral): tumor regression | anti-tumor activity ([6]; 100 mg/kg daily oral): tumor regression | pattern of maximal response [6, 20]: regression | anti-tumor activity ([7]; 10 mg/kg daily oral): weak tumor-growth inhibition | anti-tumor activity ([7]; 30 mg/kg daily oral): moderate tumor-growth inhibition; also recorded: slightly less than tumor stasis | anti-tumor activity ([7]; 50 mg/kg twice daily oral): approximate tumor stasis | anti-tumor activity ([7]; 100 mg/kg daily oral): approximate tumor stasis | anti-tumor activity ([7]; 100 mg/kg daily oral, listed as JDQ443): stasis | pattern of maximal response [7, 20]: stasis-like | pattern of maximal response ([8]; LU99, 10, 30 and 100 mg/kg oral daily): regression | anti-tumor response (Example 7) ([8]; Lu99, oral, Compound A 100 mg/kg once daily, TNO155 10 mg/kg twice daily continuous, alone or in combination): tumor regression for approximately two weeks | anti-tumor response (Example 6) ([8]; Lu99, oral, Compound A 100 mg/kg once daily, TNO155 10 mg/kg twice daily, alone or in combination, up to 28 days): tumor regression for three weeks | pattern of maximal response (HCC44 xenograft): stasis-like | pattern of maximal response (NCI-H2030 xenograft): moderate tumor growth inhibition | pattern of maximal response (KYSE410 xenograft): moderate tumor growth inhibition | tumor response in CRC PDX models [9]: regression of one PDX model and to a slight to moderate tumor growth delay in some PDX models | decrease in DUSP6 mRNA transcript (DUSP6 mRNA transcript [10]): ~75% | decrease in DUSP6 mRNA transcript (DUSP6 mRNA transcript [11]): approximately 90% | half-life (Blood pharmacokinetics): ~120 min | tolerability in 4-week toxicity study (4-week toxicity study [12]): well tolerated | tolerability in 4-week toxicity study (4-week toxicity study [13]): well tolerated | inhibition at 100 mg/kg (KRASG12C [14]): ~80% | oral bioavailability [15]: orally bioavailable | tolerability [15]: well-tolerated | oral bioavailability [16]: orally bioavailable | tolerability [16]: well-tolerated | oral bioavailability [17]: orally bioavailable | tolerability [17]: well-tolerated | IC50 (KRASG12C [18]): 20 nM | reduction of free KRAS^G12C in tumors (KRASG12C [19]): less reduction of free KRAS^G12C
